Measured values taken from patent US10662214B2, “Compound of 4′-thionucleoside, as well as preparation method therefor, pharmaceutical composition thereof and application thereof” (Sichuan Kelun-Biotech Biopharmaceutical Co., Ltd., priority 2015, dated 2020).

Assays:
[1] = tested on: human pancreatic cancer cell BxPC-3; experiment: Subcutaneous xenograft of human pancreatic cancer cell BxPC-3 in a nude mouse (Experimental example 4); format: in vivo
Procedure: According to methods similar to those in sections 1 to 3 in Experimental example 2, pancreatic cancer cell BxPC-3 was cultured as a monolayer in vitro, and inoculated; the animals were randomized into groups; and samples were prepared.
Mice bearing a tumor having a volume of 80-250 mm^3 were selected, and randomized into 6 groups (8 mice per group). The dosing volume was 10 mL/kg.
For statistical calculations of the test indexes, please refer to Experimental example 2.
The test results obtained by administrating (intravenous administration (i.v.) or oral administration (p.o.)) once a week for 3 weeks are shown in table 7-2.

[2] = tested on: human pancreatic cancer cell PANC-1; experiment: Subcutaneous xenograft of human pancreatic cancer cell PANC-1 in a nude mouse (Experimental example 6); format: in vivo; settings: once every 3 days, 6 times
Procedure: This test was performed according to experimental example 5.
Mice bearing a tumor having a volume of 100-200 mm^3 were selected, and randomized into 4 groups (6 mice per group).

## CC(C)OC(=O)[C@H](C)N[P@](=O)(OC[C@H]1S[C@@H](n2ccc(N)nc2=O)[C@@H](F)[C@@H]1O)Oc1ccccc1 [Compound C8, (S)-isopropyl 2-(((S)-(((2R,3S,4S,5R)-5-(4-amino-2-oxopyrimidin-1(2H)-yl)-4-fluoro-3-hydroxytetrahydrothiophen-2-yl)methoxy)(phenoxy)phosphoryl)amino)propanoate]
[1]; 0.06 mmol/kg p.o., twice a week for 3 weeks
  TGI (%): 47.7%
[1]; 0.12 mmol/kg p.o., twice a week for 3 weeks
  TGI (%): 53.2%
[1]; 0.23 mmol/kg p.o., once a week for 3 weeks
  TGI (%): 51.0%
[2]; 0.06 mmol/kg p.o.
  TGI (%): 155%
[2]; 0.19 mmol/kg p.o.
  TGI (%): 195%
